Reference: patent US6403622B1, “Phenylacetic acid heterocyclyl amides having an insecticidal effect” (Bayer Aktiengesellschaft, priority 1998, dated 2002)
Read-outs that look alike come from different tables or passages of the source.

Assays:
[1] = system: Plasmopara vilicola; test: Plasmopara test (grapevine) / protective; type: in vivo; conditions: 144 h, application rate 100 g/ha, evaluation 6 days after inoculation, read-out: Efficacy in %
Protocol: (§1) Solvent: 47 parts by weight of acetone
(§2) Emulsifier: 3 parts by weight of alkylaryl polyglycol ether
(§3) To produce a suitable preparation of active compound, 1 part by weight of active compound is mixed with the stated amounts of solvent and emulsifier, and the concentrate is diluted with water to the desired concentration.
To test for the protective activity, young plants are sprayed with the preparation of active compound at the stated application rate. After the spray coating has dried on, the plants are inoculated with an aqueous spore suspension of Plasmopara vilicola and then remain in an incubation cabin at about 20° C. and 100% relative atmospheric humidity for 1 day. The plants are then placed in a greenhouse at about 21° C. and about 90% relative atmospheric humidity for 5 days. The plants are then moistened and placed in an incubation cabin for 1 day.
Evaluation is carried out 6 days after the inoculation. 0% means an efficacy which corresponds to that of the control, whereas an efficacy of 100% means that no infection is observed.

[2] = system: larvae of the green rice leafhopper (Nephotettix cincticeps); test: Nephotettix test; type: in vivo; conditions: concentration of active compound 0.1 %, rice seedlings dipped
Protocol: (§4) Solvent: 7 parts by weight of dimethylformamide
(§5) Emulsifier: 1 part by weight of alkylaryl polyglycol ether
(§6) To produce a suitable preparation of active compound, 1 part by weight of active compound is mixed with the stated amount of solvent and the stated amount of emulsifier, and the concentrate is diluted with water to the desired concentration.
Rice seedlings (Oryza sativa) are treated by being dipped into the preparation of active compound of the desired concentration and are populated with larvae of the green rice leafhopper (Nephotettix cincticeps) while the seedlings are still moist.
After the desired period of time, the kill in % is determined. 100% means that all leaf hoppers have been killed; 0% means that none of the leaf hoppers have been killed.

[3] = log p determination; type: physicochemical
[4] = system: larvae of the mustard beetle (Phaedon cochleariae); test: Phaedon larvae test; type: in vivo; conditions: 168 h, concentration of active compound 0.1 %, cabbage leaves dipped, after 7 d, read-out: Kill rate in % after 7 d
Protocol: Solvent: 7 parts by weight of dimethylformamide Emulsifier: 1 part by weight of alkylaryl polyglycol ether To produce a suitable preparation of active compound, 1 part by weight of active compound is mixed with the stated amount of solvent and the stated amount of emulsifier, and the concentrate is diluted with water to the desired concentration. Cabbage leaves (Brassica oleracea) are treated by being dipped into the preparation of active compound and are populated with larvae of the mustard beetle (Phaedon cochleariae) while the leaves are still moist.

[5] = system: caterpillars of the army worm Spodoptera frugiperda; test: Spodoptera frugiperda test; type: in vivo; conditions: concentration of active compound 0.1 %, cabbage leaves dipped
Protocol: as §4, §5, §6
Cabbage leaves (Brassica oleracea) are treated by being dipped into the preparation of active compound of the desired concentration and are populated with caterpillars of the army worm Spodoptera frugiperda while the leaves are still moist.
After the desired period of time, the effect in % is determined. 100% means that all caterpillars have been killed; 0% means that none of the caterpillars have been killed.

[6] = system: Podosphaera leucotricha; test: Podosphaera test (apple) / protective; type: in vivo; conditions: application rate 100 g/ha, evaluation 10 days after inoculation
Protocol: as §1, §2, §3
To test for protective activity, young plants are sprayed with the preparation of active compound at the stated application rate. After the spray coating has dried on, the plants are inoculated with an aqueous spore suspension of the causative organism of apple mildew Podosphaera leucotricha. The plants are then placed in a greenhouse at about 23° C. and a relative atmospheric humidity of about 70%.
Evaluation is carried out 10 days after the inoculation. 0% means an efficacy which corresponds to that of the control, whereas an efficacy of 100% means that no infection is observed.

[7] = system: greenhouse red spider mite (Tetranychus urticae); test: Tetranychus test (OP-resistant/dip treatment); type: in vivo; conditions: concentration of active compound 0.01 %, bean plants dipped, OP-resistant
Protocol: as §4, §5
To produce a suitable preparation of active compound, 1 part by weight of active compound is mixed with the stated amount of solvent and the stated amount of emulsifier, and the concentrate is diluted with emulsifier-containing water to the desired concentrations.
Bean plants (Phaseolus vulgaris) which are heavily infested by all stages of the greenhouse red spider mite (Tetranychus urticae) are dipped into a preparation of active compound of the desired concentration.
After the desired period of time, the effect in % is determined. 100% means that all spider mites have been killed; 0% means that none of the spider mites have been killed.

[8] = system: Erysiphe graminis f.sp. tritici; test: Erysiphe test (wheat) / protective; type: in vivo; conditions: evaluation 7 days after inoculation
Protocol: Solvent: 25 parts by weight of N,N-dimethylacetamide
Emulsifier: 0.6 part by weight of alkylaryl polyglycol ether
as §3
To test for protective activity, young plants are sprayed with the preparation of active compound at the stated application rate.
After the spray coating has dried on, the plants are dusted with spores von Erysiphe graminis f.sp. tritici.
The plants are placed in a greenhouse at a temperature of about 20° C. and a relative atmospheric humidity of about 80% to promote the development of mildew pustules.
Evaluation is carried out 7 days after the inoculation. 0% means an efficacy which corresponds to that of the control, whereas an efficacy of 100% means that no infection is observed.

[9] = acidic, isomer mixtures, the higher log p value is stated, Table 13, read-out: log p (acidic)
[10] = pH 2.3, pH 2.3, for Example 1 two values for the two isomers, read-out: log p (pH 2.3)

Compound | pest or weed control at 100 g/ha [1] [%] | logP [3, 9] | pest or weed control at 0.1 % [4] [%] | Efficacy in % [6] [%] | logP [3, 10] | other results
Cc1nsc(NC(=O)Cc2ccc(C3(C)OCC(CCl)O3)cc2)c1Cl (centres unmarked) [Example 6] | 100 | 3.09 | 100 | – | – | Kill rate in % after 6 d [2]: 100%
Cc1nsc(NC(=O)Cc2ccc(C3(C)OCC(c4ccc(Cl)cc4)O3)cc2)c1Cl (centres unmarked) [Example 17] | 97 | 4.35 | 100 | 99 | – | Kill rate in % after 7 d [5]: 100%
Cc1nsc(NC(=O)Cc2ccc(C3(C)OCC(c4ccc(Cl)c(Cl)c4)O3)cc2)c1Cl (centres unmarked) [Example 16] | – | 4.82 | 100 | – | – | –
CC(=O)c1cccc(CC(=O)Nc2snc(C)c2Cl)c1 [Example 31, 5-[3-(acetylphenyl)-acetaminol]-4-chloro-3-methyl-isothiazole] | – | – | – | – | 2.14 | melting point: 77 to 83 °C
Cc1nsc(NC(=O)Cc2ccc(C3(C)OCC(c4ccccc4)O3)cc2)c1Cl (centres unmarked) [Example 3] | 99 | 3.83 | 100 | 99 | – | Kill rate in % after 7 d [7]: 100%
CC(=O)c1cccc(CC(=O)Nc2nc(C)ns2)c1 [Example 29, 5-[3(-acetylphenyl)acetaminol]-3-methyl-1,2,4-thiadiazole] | – | – | – | – | 1.56 | melting point: 91 to 98 °C
Cc1nsc(NC(=O)Cc2ccc(C3(C)OCC(COc4ccc(Cl)cc4)O3)cc2)c1Cl (centres unmarked) [Example 9] | 100 | 4.24 | 100 | 97 | – | –
CC=CCCCC1COC(C)(c2ccc(CC(=O)Nc3snc(C)c3Cl)cc2)O1 (centres unmarked) [Example 8] | 97 | 4.4 | 100 | 95 | – | Efficacy in % ([8]; application rate 500 g/ha): 81%; Kill rate in % after 7 d [5]: 100%; Kill rate in % after 7 d [7]: 100%
Cc1nsc(NC(=O)Cc2ccc(C3(C)OCC(C(C)(C)C)O3)cc2)c1Cl (centres unmarked) [Example 5] | – | 4 | – | – | – | Kill rate in % after 7 d [7]: 100%; Kill rate in % after 6 d [2]: 100%
CC(=O)c1ccc(CC(=O)Nc2snc(C)c2Cl)cc1 | – | – | – | – | 2.12 | –
CCC1COC(C)(c2ccc(CC(=O)Nc3snc(C)c3Cl)cc2)O1 (centres unmarked) [Example 7] | 100 | 3.23 | 100 | 97 | – | Efficacy in % ([8]; application rate 1000 g/ha): 81%; Kill rate in % after 7 d [5]: 100%; Kill rate in % after 6 d [2]: 100%
Cc1nsc(NC(=O)Cc2ccc(C3(C)OCC(c4cccc(Cl)c4)O3)cc2)c1Cl (centres unmarked) [Example 15] | 97 | 4.32 | – | – | – | –
C=CCOCC1COC(C)(c2ccc(CC(=O)Nc3snc(C)c3Cl)cc2)O1 (centres unmarked) [Example 4] | 100 | 3.23 | – | – | – | Kill rate in % after 7 d [7]: 100%
CCc1nsc(NC(=O)Cc2cccc(C(C)=O)c2)n1 [Example 30] | – | – | – | – | 1.87 | melting point: 121 to 125 °C
CCCCCCCCC1COC(C)(c2ccc(CC(=O)Nc3snc(C)c3Cl)cc2)O1 (centres unmarked) [Example 1] | – | – | 100 | – | 5.84 | log p (pH 2.3) ([3]; pH 2.3, for Example 1 two values for the two isomers): 6.05
Cc1nsc(NC(=O)Cc2ccc(C3(C)OCC(CBr)(CBr)CO3)cc2)c1Cl [Example 20] | 96 | 4.21 | – | – | – | Kill rate in % after 7 d [5]: 100%; Kill rate in % after 6 d [2]: 100%
